From PubChem BioAssay (NCI) come the findings set out here.

Structures are written as SMILES.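 Each compound was tested at five concentrations against cells in 96-well plates for 48 hours. GI50: concentration for 50% inhibition of growth. TGI denotes the concentration required for complete inhibition of growth.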 Bounds are passed on as bounds.

Test systems include 786-0 renal; OVCAR-4 ovarian; SK-MEL-28 melanoma; UACC-62 melanoma; SNB-19 CNS; NCI-H522 lung; K-562 leukemia; NCI-H460 lung; HCT-116 colon; CAKI-1 renal.
Holding throughout (assay): NCI anticancer screen, dose series, 48 h

As to `CNS(=O)(=O)NNS(=O)(=O)c1ccc(Cl)cc1`, the TGI in the assay with 786-0 renal, in the assay with OVCAR-4 ovarian, in the assay on SK-MEL-28 melanoma, in the assay on UACC-62 melanoma, in the assay with SNB-19 CNS and in the assay on NCI-H522 lung was above 100 µM each time. For the same compound, the TGI in the assay on K-562 leukemia, in the assay with NCI-H460 lung, with HCT-116 colon and in the assay on CAKI-1 renal was above 100 µM each time.

On to `CC1CN1c1c(C(=O)/C=C/c2ccccc2)c(-c2ccccc2)nn(C)c1=O` (stereo not given), for which the TGI turned out to be 30.6 µM with 786-0 renal; 31.9 µM with OVCAR-4 ovarian; 47.5 µM in the assay with SK-MEL-28 melanoma; 36.6 µM in the assay with UACC-62 melanoma; 50.2 µM in the assay with SNB-19 CNS; 26.2 µM with NCI-H522 lung. Further, the TGI stood at 50.4 µM with K-562 leukemia, 41.2 µM in the assay with NCI-H460 lung, 33.2 µM in the assay on HCT-116 colon and 81.7 µM with CAKI-1 renal.

For `N#CN1CC[C@H](C(=O)Nc2ncc(-c3ccncc3)s2)C1`, the GI50 in the assay with 786-0 renal is 0.0415 µM; in the assay on OVCAR-4 ovarian, below 0.027 µM; with SK-MEL-28 melanoma it was 0.0814 µM; in the assay with UACC-62 melanoma it was below 0.0172 µM; in the assay with SNB-19 CNS, 0.415 µM; in the assay on NCI-H522 lung it was below 0.0149 µM. Moreover, the GI50 is 0.0471 µM with K-562 leukemia, below 0.0208 µM in the assay on NCI-H460 lung, 0.0401 µM in the assay on HCT-116 colon and 0.101 µM in the assay with CAKI-1 renal. Besides, the TGI in the assay with 786-0 renal is 2.33 µM; in the assay with OVCAR-4 ovarian it was 7.07 µM; in the assay on SK-MEL-28 melanoma it was 9.19 µM; in the assay on UACC-62 melanoma, 1.32 µM; in the assay on SNB-19 CNS, above 69.6 µM; in the assay with NCI-H522 lung, 0.0499 µM. The TGI was above 100 µM in the assay with K-562 leukemia, 14.3 µM in the assay with NCI-H460 lung, 3.2 µM with HCT-116 colon and above 83.2 µM in the assay on CAKI-1 renal.

Consider `CCN1C(=O)N(CC)C2C1NN=c1s/c(=C\c3ccccc3Br)c(=O)n12` (stereo not given), for which the GI50 is 0.0525 µM with 786-0 renal; 0.069 µM with OVCAR-4 ovarian; 7.19 µM with SK-MEL-28 melanoma; 0.278 µM with UACC-62 melanoma; 0.052 µM with SNB-19 CNS; 0.019 µM in the assay with NCI-H522 lung. Also, the GI50 in the assay on K-562 leukemia is 0.0329 µM; in the assay with NCI-H460 lung, 0.0337 µM; with HCT-116 colon, 0.0302 µM; in the assay with CAKI-1 renal, 0.0242 µM. Further, the TGI in the assay with 786-0 renal was 37 µM; in the assay with OVCAR-4 ovarian, 63 µM; in the assay with SK-MEL-28 melanoma, 25 µM; with UACC-62 melanoma, 20.6 µM; with SNB-19 CNS, above 67.9 µM; in the assay on NCI-H522 lung, 1.12 µM. The TGI is above 100 µM with K-562 leukemia, 4.14 µM in the assay on NCI-H460 lung, 11.6 µM with HCT-116 colon and 26.3 µM in the assay with CAKI-1 renal.
